Measured values from ChEMBL document CHEMBL1201862, “PubChem BioAssay data set” (2004).
Activity calls are given as the source filed them.

Assays:
[1] = target: Lysine-specific demethylase 4C (Homo sapiens, UniProt Q9H3R0); assay: inhibition of JMJD2C H3K9me3 demethylation – biochemical, DELFIA europium, cherry-picked samples, dose response (AID 488835); format: functional
[2] = target: Genome polyprotein (dengue virus type 2, UniProt P29990); assay: flavivirus cap methylation enzyme inhibition – biochemical, confirmation dose response, primary screen (AID 588689); format: functional
[3] = Luminescence Cell-Based Dose Retest to Confirm Inhibitors of Cancer Stem Cells. [Related pubchem assays (depositor defined):AID2717, AID2721]; format: functional; conditions: Homo sapiens
[4] = test system: Vero; assay: viability of Vero cells under compound – cytotoxicity control for flavivirus capping enzyme inhibitors (AID 588742); format: functional; conditions: Chlorocebus sabaeus
[5] = target: Heat shock protein HSP 90-alpha (Homo sapiens, UniProt P07900); format: functional, organism-based
[6] = test system: HEK293; assay: inhibition of NOD1-driven NF-kB reporter – cell-based, luminescence, uHTS, primary screen (AID 1578); format: functional; conditions: Homo sapiens
[7] = target: Nucleotide-binding oligomerization domain-containing protein 2 (Homo sapiens, UniProt Q9HC29); assay: inhibition of NOD2-driven NF-kB reporter – cell-based, luminescence, uHTS, HEK293 (AID 1566); format: functional
[8] = Counterscreen for inhibitors of Trypanosoma brucei methionyl tRNA synthetase (MetRS): Luminescence-based cell-based high throughput dose response assay to identify compounds that are cytotoxic to Jurkat human T lymphocyte cells.; format: functional
[9] = test system: HEK293; assay: NOD2 signaling inhibitors in MDP-stimulated cells, cell-based, uHTS, luminescence (AID 2001); format: functional; conditions: Homo sapiens
[10] = test system: HEK293; assay: cells; format: functional, cell-based; conditions: Homo sapiens
[11] = test system: HEK293; assay: cells; format: functional, cell-based; conditions: Homo sapiens; remark: listed apart in the source
[12] = test system: HEK293; assay: cells; format: functional, cell-based; conditions: Homo sapiens; remark: listed apart in the source
[13] = test system: CHO; assay: CHO cell viability loss, potency – luminescence, cytotoxicity control for TLR9-MyD88 binding inhibitor project, dose response (AID 588339); format: functional, cell-based, hamster; conditions: Cricetulus griseus;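 also: CHO cells stably coexpressing TLR9 and MyD88 fusions from primary screen; compound exposure lasted 48 hours before viability readout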
[14] = target: T1, Sentrin-specific protease 8 (Homo sapiens, UniProt Q96LD8); format: functional;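 also: luminescence read-out of SENP8 inhibition, dose-response confirmation following an ultra-high-throughput screen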
T1 sequence (Q96LD8 whole entry): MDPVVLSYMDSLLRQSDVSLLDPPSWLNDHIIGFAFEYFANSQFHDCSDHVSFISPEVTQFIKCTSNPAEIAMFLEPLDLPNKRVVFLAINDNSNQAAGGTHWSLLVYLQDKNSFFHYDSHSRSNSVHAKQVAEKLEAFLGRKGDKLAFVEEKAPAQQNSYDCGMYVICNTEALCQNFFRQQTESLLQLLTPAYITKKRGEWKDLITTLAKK

[15] = target: T2, Sentrin-specific protease 6 (Homo sapiens, UniProt Q9GZR1); format: functional;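 also: Luminescence-based dose-response confirmatory assay of SENP6 inhibition, following up an ultra-high-throughput screen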
T2 sequence (Q9GZR1 whole entry): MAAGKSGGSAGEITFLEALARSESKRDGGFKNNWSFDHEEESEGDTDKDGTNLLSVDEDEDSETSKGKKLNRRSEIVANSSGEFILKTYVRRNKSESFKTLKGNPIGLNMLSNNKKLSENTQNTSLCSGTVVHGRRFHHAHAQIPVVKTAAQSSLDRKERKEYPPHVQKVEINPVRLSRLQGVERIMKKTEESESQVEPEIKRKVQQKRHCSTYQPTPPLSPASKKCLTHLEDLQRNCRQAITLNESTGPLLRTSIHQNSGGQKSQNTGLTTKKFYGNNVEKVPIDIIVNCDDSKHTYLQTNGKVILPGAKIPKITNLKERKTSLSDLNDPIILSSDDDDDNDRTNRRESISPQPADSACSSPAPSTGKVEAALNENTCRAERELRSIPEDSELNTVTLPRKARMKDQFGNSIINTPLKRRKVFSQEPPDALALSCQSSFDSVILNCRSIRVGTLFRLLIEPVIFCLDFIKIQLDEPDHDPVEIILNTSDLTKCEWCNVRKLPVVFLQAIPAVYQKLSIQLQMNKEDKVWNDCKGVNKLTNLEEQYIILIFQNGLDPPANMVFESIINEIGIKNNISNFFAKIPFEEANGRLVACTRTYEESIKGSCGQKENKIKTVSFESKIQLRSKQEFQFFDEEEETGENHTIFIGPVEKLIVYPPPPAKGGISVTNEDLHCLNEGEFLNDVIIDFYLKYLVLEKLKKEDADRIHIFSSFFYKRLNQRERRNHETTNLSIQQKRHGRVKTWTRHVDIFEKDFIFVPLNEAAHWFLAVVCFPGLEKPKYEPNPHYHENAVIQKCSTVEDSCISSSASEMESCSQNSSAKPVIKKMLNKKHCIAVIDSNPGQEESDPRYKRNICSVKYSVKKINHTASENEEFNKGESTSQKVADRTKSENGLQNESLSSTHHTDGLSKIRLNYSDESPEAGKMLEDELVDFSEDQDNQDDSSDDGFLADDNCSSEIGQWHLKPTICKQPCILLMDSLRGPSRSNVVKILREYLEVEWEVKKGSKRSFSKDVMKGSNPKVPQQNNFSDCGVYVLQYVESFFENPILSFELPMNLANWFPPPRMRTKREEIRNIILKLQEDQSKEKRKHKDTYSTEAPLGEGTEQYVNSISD

[16] = target: T3, Caspase-3 (Homo sapiens, UniProt P42574); format: functional;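 also: Dose-response selectivity test against caspase-3 for candidate inhibitors of sentrin-specific proteases (SENPs)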
T3 sequence (P42574 whole entry): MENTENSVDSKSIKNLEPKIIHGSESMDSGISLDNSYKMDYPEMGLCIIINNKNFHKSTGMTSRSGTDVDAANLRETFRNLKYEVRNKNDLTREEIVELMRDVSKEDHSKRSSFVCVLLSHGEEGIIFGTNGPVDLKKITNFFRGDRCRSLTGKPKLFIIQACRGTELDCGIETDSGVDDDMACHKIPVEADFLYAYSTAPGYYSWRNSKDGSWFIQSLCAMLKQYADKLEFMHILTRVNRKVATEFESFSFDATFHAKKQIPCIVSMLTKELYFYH

[17] = target: Cannabinoid receptor 1 (Homo sapiens, UniProt P21554); assay: SAR analysis of antagonists of the Cannabinoid Receptor 1 using an Image-Based Assay. [Related pubchem assays (depositor defined):AID1961, AID1965]; format: functional
[18] = target: T4, G-protein coupled receptor 55 (Homo sapiens, UniProt Q9Y2T6); assay: selective activators of receptor GPR55 – imaging, U2OS cells, beta-arrestin-GFP redistribution, primary screen (AID 1961); format: functional
[19] = target: T4, G-protein coupled receptor 55; assay: SAR analysis of selective Agonists of GPR55 using an Image-Based Assay. [Related pubchem assays (depositor defined):AID1961, AID1965]; format: functional
[20] = target: T5, Cannabinoid receptor 2 (Homo sapiens, UniProt P34972); assay: SAR analysis of antagonists of the Cannabinoid Receptor 2 using an Image-Based Assay - Set 2. [Related pubchem assays (depositor defined):AID1961, AID1965]; format: functional
[21] = viability loss in HepG2 hepatoma cells – cell-based, ATP luminescence, cherry-pick, activator set 2, cytotoxicity control, dose response (AID 1053143); format: functional
[22] = target: T6, Sentrin-specific protease 7 (Homo sapiens, UniProt Q9BQF6); format: functional;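 also: Luminescence-based dose-response confirmation of ultra-high-throughput screening hits, measuring inhibition of SENP7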
T6 sequence (Q9BQF6 whole entry): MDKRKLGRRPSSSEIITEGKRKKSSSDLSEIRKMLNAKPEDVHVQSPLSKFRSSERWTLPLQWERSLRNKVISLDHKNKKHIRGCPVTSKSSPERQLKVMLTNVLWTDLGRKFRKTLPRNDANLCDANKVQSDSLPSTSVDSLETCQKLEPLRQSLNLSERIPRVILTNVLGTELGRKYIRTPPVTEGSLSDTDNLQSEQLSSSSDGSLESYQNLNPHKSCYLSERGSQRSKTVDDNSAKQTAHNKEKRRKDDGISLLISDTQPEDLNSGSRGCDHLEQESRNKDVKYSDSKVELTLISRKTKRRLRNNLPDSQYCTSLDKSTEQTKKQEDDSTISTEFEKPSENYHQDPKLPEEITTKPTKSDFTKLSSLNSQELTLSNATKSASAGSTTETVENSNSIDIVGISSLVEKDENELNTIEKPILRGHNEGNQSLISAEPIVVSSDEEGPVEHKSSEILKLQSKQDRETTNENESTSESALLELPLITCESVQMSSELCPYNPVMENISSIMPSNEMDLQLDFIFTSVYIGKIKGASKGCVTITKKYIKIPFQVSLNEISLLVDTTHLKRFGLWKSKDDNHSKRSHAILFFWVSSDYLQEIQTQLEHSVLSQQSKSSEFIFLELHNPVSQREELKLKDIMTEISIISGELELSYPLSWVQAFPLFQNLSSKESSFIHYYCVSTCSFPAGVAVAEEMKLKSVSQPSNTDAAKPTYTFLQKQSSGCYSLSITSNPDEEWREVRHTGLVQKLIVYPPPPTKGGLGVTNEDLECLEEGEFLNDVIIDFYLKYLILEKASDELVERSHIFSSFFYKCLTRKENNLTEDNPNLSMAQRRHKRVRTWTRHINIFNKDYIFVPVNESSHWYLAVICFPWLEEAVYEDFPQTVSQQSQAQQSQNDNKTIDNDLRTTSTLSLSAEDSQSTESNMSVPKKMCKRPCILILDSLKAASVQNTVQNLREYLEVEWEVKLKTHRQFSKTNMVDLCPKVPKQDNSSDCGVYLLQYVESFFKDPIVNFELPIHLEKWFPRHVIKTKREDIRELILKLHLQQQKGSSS

[23] = target: T5, Cannabinoid receptor 2; assay: SAR analysis of agonists of the Cannabinoid Receptor 2 using an Image-Based Assay - Set 2. [Related pubchem assays (depositor defined):AID1961, AID1965]; format: functional
[24] = target: T7, Cytochrome P450 1A2 (Homo sapiens, UniProt P05177);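 also: PubChem cytochrome P450 panel assay, CYP1A2 panel member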
T7 sequence (P05177 whole entry): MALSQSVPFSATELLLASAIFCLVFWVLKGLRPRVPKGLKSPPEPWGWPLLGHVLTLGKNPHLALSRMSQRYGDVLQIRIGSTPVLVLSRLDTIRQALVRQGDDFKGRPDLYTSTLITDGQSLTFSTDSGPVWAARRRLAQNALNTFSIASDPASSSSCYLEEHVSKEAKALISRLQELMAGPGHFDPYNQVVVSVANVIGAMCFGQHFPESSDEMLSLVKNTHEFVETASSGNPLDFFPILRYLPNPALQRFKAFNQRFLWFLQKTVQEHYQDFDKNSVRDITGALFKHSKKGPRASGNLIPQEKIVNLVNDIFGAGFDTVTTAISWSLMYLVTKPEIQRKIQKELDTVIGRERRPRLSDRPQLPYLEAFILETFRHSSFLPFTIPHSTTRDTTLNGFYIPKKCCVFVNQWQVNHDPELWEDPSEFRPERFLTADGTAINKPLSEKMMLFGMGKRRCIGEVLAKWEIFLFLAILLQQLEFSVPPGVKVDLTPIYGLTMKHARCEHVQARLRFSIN

[25] = test system: HEK293; assay: EBV LMP1 TES2 canonical NF-kB signalling blockers – cell-based, HEK293, luciferase, cherry-pick, dose response (AID 588343); format: functional; conditions: Homo sapiens
[26] = target: Latent membrane protein 1 (Human herpesvirus 4 (strain B95-8), UniProt P03230); assay: LMP1 TES1 pathway selectivity over dsRED control – imaging, HEK293T, dual-color eGFP/dsRED, cherry-picks, selectivity assay for LMP1 NF-kB inhibitor project, dose response (AID 588398); format: functional, cell-based
[27] = target: Interleukin-8 (Homo sapiens, UniProt P10145); assay: Dose Response confirmation of uHTS small molecule hits for cystic fibrosis induced NFkb Inhibitors in a PAF-induced IL8 counterscreen.; format: functional; conditions: read-out: IC50_Mean
[28] = target: Cytochrome P450 2C9 (Homo sapiens, UniProt P11712)
Chain of Cytochrome P450 2C9 (P11712 whole entry): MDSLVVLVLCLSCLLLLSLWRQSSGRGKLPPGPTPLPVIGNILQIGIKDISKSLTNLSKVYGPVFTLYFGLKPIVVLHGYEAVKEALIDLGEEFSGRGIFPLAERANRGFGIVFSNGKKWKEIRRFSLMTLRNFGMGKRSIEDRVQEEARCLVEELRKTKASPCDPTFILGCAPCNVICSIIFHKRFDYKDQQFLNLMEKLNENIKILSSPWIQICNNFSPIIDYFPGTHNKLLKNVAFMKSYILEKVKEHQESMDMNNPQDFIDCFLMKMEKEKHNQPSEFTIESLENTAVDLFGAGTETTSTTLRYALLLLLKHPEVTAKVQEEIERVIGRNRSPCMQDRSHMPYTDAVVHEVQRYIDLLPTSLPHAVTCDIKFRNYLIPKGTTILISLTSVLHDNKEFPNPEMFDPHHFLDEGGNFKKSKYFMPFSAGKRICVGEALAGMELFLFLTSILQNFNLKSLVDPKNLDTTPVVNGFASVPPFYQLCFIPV

T4 sequence (Q9Y2T6 whole entry): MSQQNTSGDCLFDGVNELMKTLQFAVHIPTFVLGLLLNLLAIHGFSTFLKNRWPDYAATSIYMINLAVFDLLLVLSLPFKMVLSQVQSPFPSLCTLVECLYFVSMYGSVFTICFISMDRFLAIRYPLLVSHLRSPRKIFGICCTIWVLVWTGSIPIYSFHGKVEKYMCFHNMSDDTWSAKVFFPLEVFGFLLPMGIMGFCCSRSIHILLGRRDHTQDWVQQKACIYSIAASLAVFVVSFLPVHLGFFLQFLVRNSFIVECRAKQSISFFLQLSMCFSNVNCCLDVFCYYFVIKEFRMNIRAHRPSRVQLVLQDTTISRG
T5 sequence (P34972 whole entry): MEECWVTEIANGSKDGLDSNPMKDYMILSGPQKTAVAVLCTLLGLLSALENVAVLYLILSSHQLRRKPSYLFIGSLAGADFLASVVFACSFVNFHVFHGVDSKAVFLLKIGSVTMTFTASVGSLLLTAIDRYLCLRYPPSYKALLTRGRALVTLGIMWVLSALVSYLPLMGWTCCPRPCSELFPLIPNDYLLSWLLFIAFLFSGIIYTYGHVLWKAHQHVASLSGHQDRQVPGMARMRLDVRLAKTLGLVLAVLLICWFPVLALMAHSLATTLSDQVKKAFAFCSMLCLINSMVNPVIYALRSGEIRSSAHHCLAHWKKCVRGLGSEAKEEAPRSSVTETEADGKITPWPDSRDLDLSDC
Chain of Interleukin-8 (P10145 whole entry): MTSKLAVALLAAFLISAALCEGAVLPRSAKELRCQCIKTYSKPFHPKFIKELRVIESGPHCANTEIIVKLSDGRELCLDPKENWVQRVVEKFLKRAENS
Chain of Genome polyprotein (P29990 2492-3391 limits assumed): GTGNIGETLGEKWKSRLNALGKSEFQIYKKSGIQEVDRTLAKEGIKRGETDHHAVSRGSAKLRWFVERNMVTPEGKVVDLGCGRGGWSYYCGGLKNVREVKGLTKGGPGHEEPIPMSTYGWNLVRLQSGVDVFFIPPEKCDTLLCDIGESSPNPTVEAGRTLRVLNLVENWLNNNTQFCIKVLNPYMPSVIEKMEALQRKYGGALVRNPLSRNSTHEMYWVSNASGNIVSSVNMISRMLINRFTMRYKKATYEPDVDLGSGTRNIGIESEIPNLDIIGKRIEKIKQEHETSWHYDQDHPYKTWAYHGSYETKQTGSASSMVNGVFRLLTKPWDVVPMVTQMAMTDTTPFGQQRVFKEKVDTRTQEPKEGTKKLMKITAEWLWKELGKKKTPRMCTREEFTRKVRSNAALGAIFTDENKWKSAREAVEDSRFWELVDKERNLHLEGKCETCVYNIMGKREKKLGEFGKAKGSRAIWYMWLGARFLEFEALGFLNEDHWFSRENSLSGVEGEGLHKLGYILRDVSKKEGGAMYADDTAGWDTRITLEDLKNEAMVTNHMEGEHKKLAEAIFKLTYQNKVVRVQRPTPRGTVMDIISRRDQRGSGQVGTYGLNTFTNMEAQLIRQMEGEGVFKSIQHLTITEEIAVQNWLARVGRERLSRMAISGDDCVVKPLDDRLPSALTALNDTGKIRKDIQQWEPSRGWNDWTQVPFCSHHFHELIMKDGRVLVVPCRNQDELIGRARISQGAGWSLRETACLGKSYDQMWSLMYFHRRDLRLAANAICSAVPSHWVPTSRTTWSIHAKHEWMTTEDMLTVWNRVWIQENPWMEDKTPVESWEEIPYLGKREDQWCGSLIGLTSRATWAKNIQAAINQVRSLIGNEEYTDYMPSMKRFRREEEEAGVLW
Chain of Lysine-specific demethylase 4C (Q9H3R0 whole entry): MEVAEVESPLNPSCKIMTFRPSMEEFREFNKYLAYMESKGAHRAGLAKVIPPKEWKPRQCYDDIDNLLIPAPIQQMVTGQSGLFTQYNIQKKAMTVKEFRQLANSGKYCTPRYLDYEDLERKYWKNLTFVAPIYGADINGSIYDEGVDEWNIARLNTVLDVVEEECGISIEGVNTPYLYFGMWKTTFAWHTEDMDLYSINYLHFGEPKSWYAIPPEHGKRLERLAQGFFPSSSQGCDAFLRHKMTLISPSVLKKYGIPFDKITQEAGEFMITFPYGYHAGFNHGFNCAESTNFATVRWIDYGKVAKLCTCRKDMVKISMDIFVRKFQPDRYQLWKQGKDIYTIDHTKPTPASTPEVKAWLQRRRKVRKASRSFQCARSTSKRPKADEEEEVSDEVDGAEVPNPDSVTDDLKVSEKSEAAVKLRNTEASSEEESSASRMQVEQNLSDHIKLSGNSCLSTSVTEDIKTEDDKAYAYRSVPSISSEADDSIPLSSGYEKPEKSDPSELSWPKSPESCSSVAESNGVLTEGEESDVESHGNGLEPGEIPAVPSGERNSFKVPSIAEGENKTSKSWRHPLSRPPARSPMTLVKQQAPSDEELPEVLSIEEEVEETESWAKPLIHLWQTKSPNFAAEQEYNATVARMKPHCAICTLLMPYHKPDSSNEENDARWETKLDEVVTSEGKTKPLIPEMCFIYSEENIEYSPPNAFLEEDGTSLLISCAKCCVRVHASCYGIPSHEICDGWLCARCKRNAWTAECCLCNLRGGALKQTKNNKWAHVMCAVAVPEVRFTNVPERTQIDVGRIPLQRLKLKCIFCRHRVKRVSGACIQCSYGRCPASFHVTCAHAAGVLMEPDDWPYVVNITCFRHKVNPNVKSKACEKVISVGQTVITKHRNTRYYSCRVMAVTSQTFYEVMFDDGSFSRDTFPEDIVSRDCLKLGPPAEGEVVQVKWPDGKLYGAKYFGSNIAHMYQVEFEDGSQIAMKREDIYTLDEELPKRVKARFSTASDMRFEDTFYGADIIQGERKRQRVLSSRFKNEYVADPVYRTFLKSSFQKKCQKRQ
Chain of Latent membrane protein 1 (P03230 whole entry): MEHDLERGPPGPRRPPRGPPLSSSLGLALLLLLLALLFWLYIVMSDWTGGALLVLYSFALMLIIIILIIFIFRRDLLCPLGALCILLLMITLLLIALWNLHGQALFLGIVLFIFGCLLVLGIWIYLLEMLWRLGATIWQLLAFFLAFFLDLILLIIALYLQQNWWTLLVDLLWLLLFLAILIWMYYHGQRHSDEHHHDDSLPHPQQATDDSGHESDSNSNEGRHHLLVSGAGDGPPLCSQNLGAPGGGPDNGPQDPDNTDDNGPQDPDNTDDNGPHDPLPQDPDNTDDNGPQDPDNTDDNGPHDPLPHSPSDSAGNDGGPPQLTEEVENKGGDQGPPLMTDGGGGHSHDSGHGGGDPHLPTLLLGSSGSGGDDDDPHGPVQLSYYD
Chain of Cannabinoid receptor 1 (P21554 whole entry): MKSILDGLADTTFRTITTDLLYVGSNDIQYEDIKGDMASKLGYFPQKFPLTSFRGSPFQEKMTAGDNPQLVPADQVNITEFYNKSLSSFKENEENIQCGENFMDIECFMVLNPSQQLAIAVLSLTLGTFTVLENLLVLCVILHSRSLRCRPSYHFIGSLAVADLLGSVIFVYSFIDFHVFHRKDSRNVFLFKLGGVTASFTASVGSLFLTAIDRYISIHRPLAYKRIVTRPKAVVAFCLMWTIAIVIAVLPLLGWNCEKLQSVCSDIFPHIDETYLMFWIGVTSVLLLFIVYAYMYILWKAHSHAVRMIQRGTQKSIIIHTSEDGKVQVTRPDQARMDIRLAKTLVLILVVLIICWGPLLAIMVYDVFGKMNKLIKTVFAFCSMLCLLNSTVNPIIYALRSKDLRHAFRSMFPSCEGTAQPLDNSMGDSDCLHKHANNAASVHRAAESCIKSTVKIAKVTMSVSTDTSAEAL

With `c1ccc2cc(CCO[C@H]3CCCCO3)ncc2c1` as the compound, how does the AC50 [1] read?
Its AC50 is 11.3 µM (active).

What does the source list for `CC1(C)CC[C@]2(C(=O)O)CC[C@]3(C)C(=CC[C@@H]4[C@@]5(C)CC[C@H](O[C@@H]6O[C@H](C(=O)O)[C@@H](O)[C@H](O[C@@H]7OC[C@H](O)[C@H](O)[C@H]7O)[C@H]6O)C(C)(C)[C@@H]5CC[C@]43C)[C@@H]2C1`?
IC50 [2]: 31 µM (active); AC50 [3]: 2.85 µM (active); CC50 [4]: 36.8 µM (active); AC50 [5]: 0.649 µM (active)

What does the source list for `O=C(NCc1cc(Br)cc(Br)c1OC(=O)c1ccccc1[N+](=O)[O-])c1ccccc1`?
EC50 [6]: 6.43 µM (active); EC50 [7]: 18.6 µM (active); IC50 [8]: 50.3 µM (inactive); IC50 [9]: 5.6 µM (active); CC50 [4]: > 40 µM (active); IC50 [10]: 5.22 µM (active); IC50 [11]: > 20 µM (inactive); IC50 [12]: > 20 µM (inactive)

For `CNC(=S)N/N=C/c1ccc(OCc2ccccc2)c(Br)c1`, which IC50 [13] is on record?
The IC50 was 7.62 µM (active).

What does the source list for `CC(C)=CC(=O)Nc1ccc(OCc2ccccc2)cc1`?
IC50 [14]: 28.6 µM (active); IC50 [15]: 25.9 µM (active); IC50 [16]: 20.8 µM (active); IC50 [17]: > 32 µM (inactive); EC50 [18]: 2.34 µM (active); EC50 [19]: 1.89 µM (active); IC50 [20]: > 32 µM (inactive); AC50 [21]: > 52 µM (inactive); IC50 [22]: 8.82 µM (active); EC50 [23]: > 32 µM (inactive)

Which AC50 [24] does the source give for `Cc1ccc(S(=O)(=O)O)cc1.c1cc2c(c(NC3=NCCN3)c1)CCCC2` here?
Its AC50 is “inactive”.

For `COc1ccc(-c2csc3ncnc(NCCN4CCOCC4)c23)cc1`, which AC50 [25] is on record?
Its AC50 is 25.3 µM (active).

What about the AC50 [26] of the same compound?
The AC50 was 21.3 µM (active).

What about the IC50 [27] of the same compound?
The IC50 was 50.7 µM (inactive).

For `COc1cc(C(=O)NCc2ccc(OCCN(C)C)cc2)cc(OC)c1OC` [TRIMETHOBENZAMIDE], which AC50 [24] is on record?
The AC50 was “inactive”.

And the AC50 [28]?
Its AC50 is “inactive”.
